Reference: PubChem BioAssay (NCI)
Several values for one entry are separate records, joined by “and”; a condition that tells them apart may be missing. Equal values may be shown once.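 A five-concentration, 48-hour dose response in 96-well plates underlies each endpoint, interpolated linearly between surrounding concentrations. GI50: concentration for 50% inhibition of growth. Definition used: TGI = concentration required for complete inhibition of growth.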

Key:
Assay in all cases: NCI-60 cell line screen, 48 h
ACHN renal = test system: ACHN renal
COLO 205 colon = test system: COLO 205 colon
SF-295 CNS = test system: SF-295 CNS
U251 CNS = test system: U251 CNS
PC-3 prostate = test system: PC-3 prostate
SNB-75 CNS = test system: SNB-75 CNS
OVCAR-8 ovarian = test system: OVCAR-8 ovarian
SK-OV-3 ovarian = test system: SK-OV-3 ovarian
K-562 leukemia = test system: K-562 leukemia
NCI-H226 lung = test system: NCI-H226 lung

| SMILES | GI50 (ACHN renal) | TGI (ACHN renal) | GI50 (COLO 205 colon) | TGI (COLO 205 colon) | GI50 (SF-295 CNS) | TGI (SF-295 CNS) | GI50 (U251 CNS) | TGI (U251 CNS) | GI50 (PC-3 prostate) | TGI (PC-3 prostate) | GI50 (SNB-75 CNS) | TGI (SNB-75 CNS) | GI50 (OVCAR-8 ovarian) | TGI (OVCAR-8 ovarian) | GI50 (SK-OV-3 ovarian) | TGI (SK-OV-3 ovarian) | GI50 (K-562 leukemia) | TGI (K-562 leukemia) | GI50 (NCI-H226 lung) | TGI (NCI-H226 lung) |
| --- | --- | --- | --- | --- | --- | --- | --- | --- | --- | --- | --- | --- | --- | --- | --- | --- | --- | --- | --- | --- |
| O=C1NC(=O)C(c2ccc(Cl)cc2)=C1Nc1ccc(Cl)c(C(=O)O)c1 | > 25 µM | > 25 µM | > 25 µM | > 25 µM | > 25 µM | > 25 µM | > 25 µM | > 25 µM | > 25 µM | > 25 µM | > 25 µM | > 25 µM | > 25 µM | > 25 µM | > 25 µM | > 25 µM | > 25 µM | > 25 µM | > 25 µM | > 25 µM |
| OC(C1CO1)C(O)C1CO1 (stereo unspecified) | – | 52.2 µM and 156 µM | 124 µM | 127 µM and 285 µM | 11.9 µM and 1.59 µM | 123 µM and 126 µM | 7.78 µM | 114 µM and 168 µM | 76.1 µM | 150 µM and 220 µM | 32.2 µM | 116 µM and 166 µM | – | 115 µM and 453 µM | 5.68 µM | 95.2 µM and 186 µM | 62.5 µM | 150 µM | 47.7 µM and 122 µM | 136 µM and 412 µM |
| O=C(O)c1ccc2c3c(ncnc13)-c1ccccc1C2=O | 25.7 µM | > 100 µM | 3.25 µM | 16.7 µM | 2.28 µM | > 30.6 µM | 4.08 µM | > 100 µM | 43.3 µM | > 100 µM | 3.21 µM | > 21 µM | 47.5 µM | > 100 µM | > 89.5 µM | > 100 µM | 42.1 µM | > 100 µM | 4.08 µM | > 100 µM |
| CCOC(=O)NC1=C(N2CC2)C(=O)C(NC(=O)OCC)=C(N2CC2)C1=O | 1.32 µM and 1.06 µM | 20.3 µM and 12.7 µM and 23.6 µM | 15.1 µM and 8.56 µM | 25 µM and 33 µM and 51.1 µM | 1.86 µM | 25 µM and 23.3 µM and 31.4 µM | 3.91 µM | 20 µM and 10.8 µM and 9.77 µM | – | 16.2 µM | 9.24 µM | 23.2 µM and 29.9 µM and 52 µM | 4.71 µM | 14.3 µM and 14.5 µM | 9.93 µM and 8.49 µM | 25 µM and 20.3 µM and 31.8 µM | 6.13 µM | 20.8 µM and 38.3 µM and 17 µM | 18 µM and 11 µM | 25 µM and 20 µM and 43 µM |
| Fc1cccc(CSc2ncnc3c2ncn3C2CCCS2)c1 (stereo unspecified) | – | 39.7 µM | – | 24.4 µM | – | 41.1 µM | – | 42.8 µM | – | > 100 µM | – | 65.6 µM | – | 75.7 µM | – | > 100 µM | – | 84.2 µM | – | 61.4 µM |
| NC(=S)N/N=C/c1ccc(O)cn1 | 4.14 µM | 40.8 µM and 16.1 µM | 35.8 µM and 55 µM and 8.96 µM | > 1500 µM and 655 µM | 33.7 µM and 31.7 µM | 113 µM and 111 µM | 9.35 µM and 6.93 µM | 391 µM and 602 µM | – | > 1500 µM | 13.8 µM | 60.4 µM and 227 µM | 4.71 µM | 72.3 µM and 161 µM and 393 µM | 128 µM and 25.8 µM | 953 µM and 613 µM | 12.3 µM and 7.25 µM | 55.2 µM and 439 µM | 29.7 µM | 83.7 µM and 374 µM |
| CN1CCC(C(=O)Nc2n[nH]c3nc(-c4ccc(O)cc4)c(Br)cc23)CC1 | 5.37 µM and 6.3 µM | > 25 µM | 1 µM and 1.3 µM | 3.7 µM and 3.04 µM | 3.94 µM and 3.41 µM | 20.1 µM and 22.3 µM | 0.661 µM and 0.848 µM | > 25 µM | 1.08 µM and 1.64 µM | > 22.2 µM | 0.207 µM and 0.537 µM | 8.38 µM and 7.52 µM | 0.965 µM and 1.77 µM | > 20.2 µM | 1.19 µM and 1.28 µM | > 25 µM | 1.04 µM and 0.404 µM | > 25 µM | 0.674 µM and 1.06 µM | 8.55 µM and > 15.5 µM |
| c1cncc(-c2nc3ccccc3s2)c1 | 95.1 µM | > 100 µM | > 100 µM | > 100 µM | > 100 µM | > 100 µM | 97 µM | > 100 µM | > 100 µM | > 100 µM | 58.4 µM | > 100 µM | > 100 µM | > 100 µM | > 100 µM | > 100 µM | > 100 µM | > 100 µM | > 100 µM | > 100 µM |
| CC(C)[NH-].CC(C)[NH-].O.O.[Cl][Pt+2][Cl] | 14.1 µM | 107 µM | 30.1 µM | 98.7 µM | 42.9 µM | 149 µM | 27.3 µM | 107 µM | 90.8 µM | 298 µM | 94.4 µM | 308 µM | 36.5 µM | 167 µM | 28.6 µM | 92.6 µM | 39.1 µM | 179 µM | 66 µM | 259 µM |
| Cc1cc(Oc2cnc(=O)[nH]c2)cs1 | – | > 100 µM | – | > 100 µM | – | > 100 µM | – | > 100 µM | – | > 100 µM | – | > 100 µM | – | > 100 µM | – | > 100 µM | – | > 100 µM | – | > 100 µM |
